{"source": "paper PMC3292467", "about": "“Comparison between ^68Ga-bombesin (^68Ga-BZH3) and the cRGD tetramer ^68Ga-RGD4 studies in an experimental nude rat model with a neuroendocrine pancreatic tumor cell line” (EJNMMI Research, 2011)", "key": {"[1]": {"test": "Dynamic PET, tumor uptake (SUV) in AR42J tumor-bearing nude rats", "assay_type": "in vivo, rat", "conditions": "rat, in vivo, iv, i.v. 20 to 40 MBq (BZH3, n = 5), 10 to 30 MBq (RGD4, n = 4), nude rats, read-out: SUV (standardized uptake value) in tumor", "excerpt": "(§1) Irregular regions of interest were drawn manually."}, "AR42J tumor [2]": {"tested_on": "AR42J tumor", "test": "Dynamic PET, tumor uptake (SUV) in AR42J tumor-bearing nude rats", "assay_type": "in vivo, rat", "conditions": "for SUV (standardized uptake value) in tumor: 55 to 60 min post-injection, i.v. 20 to 40 MBq (BZH3, n = 5), 10 to 30 MBq (RGD4, n = 4), nude rats", "excerpt": "as §1"}, "AR42J tumor [3]": {"tested_on": "AR42J tumor", "conditions": "for VB (vessel density, fractional blood volume) / K1 (transport into the cell; associated with receptor binding) / RBP (receptor binding potential) / k2 (displacement from the receptor) / k3 (cellular internalisation) / k4 (externalization): AR42J tumor-bearing nude rats, n = 5 (BZH3), n = 4 (RGD4); for VB (vessel density, fractional blood volume): dynamic PET 60 min, i.v.", "procedure": "The AR42J cell line, derived from a rat exocrine pancreas neuroendocrine tumor, was used. Cells were obtained from the European Collection of Cell Cultures and were grown in RPMI 1640 medium supplemented with 2 mmol/L glutamine and 10% fetal calf serum. Adherent cells were dislodged with trypsin/ethylenediaminetetraacetic acid (0.02%: 0.05%, w/v). For PET-studies, 5 × 10^6 cells in 200 μl RPMI without supplements were inoculated subcutaneously in the right hind leg of Wistar rats.\nThe study included nine AR 42 J tumor-bearing nude rats. We grouped all rats according to PET tracers (B, ^68Ga-BZH3 and R, ^68Ga-RGD4), used in dynamic PET scanning, as noted in Table 1. Dynamic PET studies were performed for 60 min after the intravenous application of 10 to 30 MBq ^68Ga-RGD4 or 20 to 40 MBq ^68Ga-BZH3, using a 28-frame protocol (ten frames of 30 s, five frames of 60 s, five frames of 120 s, and eight frames of 300 s). Two animals can be examined in parallel per scanning by a homemade injector (Figure 2). A dedicated PET-CT system (Biograph™ mCT, 128 S/X, Siemens Co, Erlangen, Germany) with an axial field of view of 21.6 cm with TrueV, operated in a three-dimensional mode, was used for all animal studies. The system provides the simultaneous acquisition of 369 transverse slices with a slice thickness of 0.6 mm. The animals were positioned in the axial plane of the system to maintain the best resolution in the center of the system. All PET images were attenuation-corrected and an image matrix of 400 × 400 pixels was used for iterative image reconstruction (voxel size 1.565 × 1.565 × 0.6 mm) based on the syngo MI PET/CT 2009C software version. After the end of the dynamic series an ultrahigh resolution CT with 85 mA, 80 kV and a pitch of 0.85 cm was performed for attenuation correction of the acquired dynamic emission data. The reconstructed images were converted to SUV images based on the formula [24]: SUV = Tissue concentration (becquerel per gram)/[injected dose ([…]))/body weight (gram)]. The SUV 55 to 60 min post-injection was used for the assessment of both tracers. The SUV images were used for all further quantitative evaluations.\nDynamic PET data were evaluated using the software package PMOD (provided courtesy of PMOD Technologies Ltd., Zuerich, Switzerland). Areas with enhanced tracer uptake on transaxial, coronal, and sagittal images were evaluated visually. A volume of interest consists of several regions of interest over the target area. Irregular regions of interest were drawn manually. A detailed quantitative evaluation of tracer kinetics requires the use of compartmental modeling. A two-tissue-compartment model was used to evaluate the dynamic studies.\nIn animals, a partial volume correction must be applied to the data due to the small size of the input and tumor volumes of interest (VOIs). Herein, the recovery coefficient was 0.85 for a diameter of 8 mm and 0.32 for a diameter of 3 mm based on phantom measurements as well as the recent parameter settings used with the reconstruction software. For the input function the mean values of the VOI data obtained from the heart were used. We used a preprocessing tool, which allowed a fit of the input curve by a sum of up to three decaying exponentials. The learning-machine two-tissue-compartment model was used for the fitting and provided five parameters: the transport parameters for tracer into and out of the cell, K1 and k2, the parameters for phosphorylation and dephosphorylation of intracellular tracer, k3 and k4, and the fractional blood volume, also called vessel density (VB), which reflects the amount of blood in the VOI. Following compartment analysis, we calculated the global influx of tracer from the compartment data using the formula: influx = (K1 × k3)/(k2 + k3). […] The model parameters were accepted when K1 - k4 was less than 1 and VB exceeded 0. The unit for the rate constants K1 to k4 was 1/min."}, "[4]": {"conditions": "3D fused PET-CT images; male rat", "procedure": "The study included nine AR 42 J tumor-bearing nude rats. We grouped all rats according to PET tracers (B, ^68Ga-BZH3 and R, ^68Ga-RGD4), used in dynamic PET scanning, as noted in Table 1. Dynamic PET studies were performed for 60 min after the intravenous application of 10 to 30 MBq ^68Ga-RGD4 or 20 to 40 MBq ^68Ga-BZH3, using a 28-frame protocol (ten frames of 30 s, five frames of 60 s, five frames of 120 s, and eight frames of 300 s). Two animals can be examined in parallel per scanning by a homemade injector (Figure 2). A dedicated PET-CT system (Biograph™ mCT, 128 S/X, Siemens Co, Erlangen, Germany) with an axial field of view of 21.6 cm with TrueV, operated in a three-dimensional mode, was used for all animal studies. The system provides the simultaneous acquisition of 369 transverse slices with a slice thickness of 0.6 mm. The animals were positioned in the axial plane of the system to maintain the best resolution in the center of the system. […] The SUV images were used for all further quantitative evaluations.\nDynamic PET data were evaluated using the software package PMOD (provided courtesy of PMOD Technologies Ltd., Zuerich, Switzerland). Areas with enhanced tracer uptake on transaxial, coronal, and sagittal images were evaluated visually. […] A detailed quantitative evaluation of tracer kinetics requires the use of compartmental modeling. […]"}, "[5]": {"tested_on": "gastrointestinal stromal tumors", "conditions": "ref [15], cited from earlier work", "excerpt": "Bombesin and the two mammalian bombesin-like peptides, […] regulate many biologic response processes through activation of distinct receptor subtypes, including modulation of smooth muscle contraction, secretion of neuropeptides and hormones, as well as stimulation of cell growth. Activation of neuromedin B (BB1) receptors has been reported in various human cancers."}, "gliomas": {"tested_on": "gliomas", "conditions": "compared with ^68Ga-DOTATOC in meningiomas, ref [47]; cited from earlier work", "excerpt": "Concerning the ^68Ga-BZH3 kinetics, k1 is a parameter that reflects the receptor binding and k3 is a parameter that reflects the internalization of the tracer."}, "[6]": {"conditions": "median, between tracers P 0.05*"}}, "note": "“Also recorded” adds a separate entry of the source. Where two headings read alike, the source gives them in different places. Square brackets hold non-standard residues; d marks the D form. Peptide text beside a SMILES is read from it. * marks the point of attachment. DOTA = O=C(O)CN1CCN(CC(=O)O)CCN(CC(=O)*)CCN(CC(=O)O)CC1; 2Thi = N[C@@H](Cc1cccs1)C(=O)O; Nle = CCCC[C@H](N)C(=O)O; AEEA = NCCOCCOCC(=O)O; βAla = NCCC(=O)O", "data": [{"smiles": "CCCC[C@H](NC(=O)[C@H](Cc1cccs1)NC(=O)[C@H](Cc1c[nH]cn1)NC(=O)CCNC(=O)[C@@H](NC(=O)[C@H](C)NC(=O)[C@H](Cc1c[nH]c2ccccc12)NC(=O)[C@H](CCC(N)=O)NC(=O)[C@@H](Cc1ccc(O)cc1)NC(=O)COCCOCCNC(=O)COCCOCCNC(=O)CN1CCN(CC(=O)O)CCN(CC(=O)O)CCN(CC(=O)O)CC1)C(C)C)C(N)=O", "note": "[^68Ga-BZH3, DOTA-PEG2-[D-Tyr^6 -β-Ala^11 -Thi^13 -Nle^14]BN(6-14) amide, metal not drawn] ({DOTA-AEEA-AEEA}-[dY]QWAV[βAla]H[2Thi][Nle]-NH2)", "values": [{"measurement": "SUV", "setting": "[1]; mean, 55 to 60 min post-injection", "result": 1.08, "unit": "SUV"}, {"measurement": "SUV", "setting": "[1]; median, 55 (56) to 60 min post-injection, between tracers P 0.8065", "result": 1.19, "unit": "SUV"}, {"measurement": "tumor visualisation", "setting": "AR42J tumor [2]; 3D fused PET-CT image, tumor in lower leg", "result": "clearly showed enhanced ^68Ga-BZH3 uptake in the tumor area in the lower leg"}, {"measurement": "tumor uptake compared with the other tracer", "setting": "AR42J tumor [2]; ^68Ga-BZH3 vs ^68Ga-RGD4, AR42J tumor-bearing nude rats", "result": "generally higher than ^68Ga-RGD4 uptake; also recorded: higher than that of ^68Ga-RGD4"}, {"measurement": "SUV (standardized uptake value) in tumor", "setting": "AR42J tumor [2]; maximum", "result": 1.2884}, {"measurement": "SUV (standardized uptake value) in tumor", "setting": "AR42J tumor [2]; minimum", "result": 0.8628}, {"measurement": "FD, VB, K1 and RBP compared between tracers", "setting": "AR42J tumor [3]; ^68Ga-BZH3 vs ^68Ga-RGD tetramer", "result": "generally higher than the corresponding values for the ^68Ga-RGD tetramer"}, {"measurement": "VB (vessel density, fractional blood volume)", "setting": "AR42J tumor [3]; maximum", "result": 0.1646}, {"measurement": "K1 (transport into the cell; associated with receptor binding)", "setting": "AR42J tumor [3]; maximum", "result": 0.4862, "unit": "min⁻¹"}, {"measurement": "RBP (receptor binding potential)", "setting": "AR42J tumor [3]; maximum", "result": 0.1202}, {"measurement": "k2 (displacement from the receptor)", "setting": "AR42J tumor [3]; maximum", "result": 0.6103, "unit": "min⁻¹"}, {"measurement": "k3 (cellular internalisation)", "setting": "AR42J tumor [3]; maximum", "result": 0.2005, "unit": "min⁻¹"}, {"measurement": "k4 (externalization)", "setting": "AR42J tumor [3]; maximum", "result": 0.1746, "unit": "min⁻¹"}, {"measurement": "VB (vessel density, fractional blood volume)", "setting": "AR42J tumor [3]; mean", "result": 0.1037}, {"measurement": "K1 (transport into the cell; associated with receptor binding)", "setting": "AR42J tumor [3]; mean", "result": 0.3717, "unit": "min⁻¹"}, {"measurement": "RBP (receptor binding potential)", "setting": "AR42J tumor [3]; mean", "result": 0.0765}, {"measurement": "k2 (displacement from the receptor)", "setting": "AR42J tumor [3]; mean", "result": 0.4808, "unit": "min⁻¹"}, {"measurement": "k3 (cellular internalisation)", "setting": "AR42J tumor [3]; mean", "result": 0.1235, "unit": "min⁻¹"}, {"measurement": "k4 (externalization)", "setting": "AR42J tumor [3]; mean", "result": 0.0986, "unit": "min⁻¹"}, {"measurement": "VB (vessel density, fractional blood volume)", "setting": "AR42J tumor [3]; [6]", "result": 0.0903}, {"measurement": "RBP (receptor binding potential)", "setting": "AR42J tumor [3]; median, between tracers P 0.0275*", "result": 0.0607}, {"measurement": "K1 (transport into the cell; associated with receptor binding)", "setting": "AR42J tumor [3]; [6]", "result": 0.3506, "unit": "min⁻¹"}, {"measurement": "k4 (externalization)", "setting": "AR42J tumor [3]; [6]", "result": 0.1005, "unit": "min⁻¹"}, {"measurement": "k2 (displacement from the receptor)", "setting": "AR42J tumor [3]; median, between tracers P 0.4624", "result": 0.5216, "unit": "min⁻¹"}, {"measurement": "k3 (cellular internalisation)", "setting": "AR42J tumor [3]; median, between tracers P 0.8065", "result": 0.1177, "unit": "min⁻¹"}, {"measurement": "VB (vessel density, fractional blood volume)", "setting": "AR42J tumor [3]; minimum", "result": 0.0603}, {"measurement": "K1 (transport into the cell; associated with receptor binding)", "setting": "AR42J tumor [3]; minimum", "result": 0.3055, "unit": "min⁻¹"}, {"measurement": "RBP (receptor binding potential)", "setting": "AR42J tumor [3]; minimum", "result": 0.0506}, {"measurement": "k2 (displacement from the receptor)", "setting": "AR42J tumor [3]; minimum", "result": 0.2768, "unit": "min⁻¹"}, {"measurement": "k3 (cellular internalisation)", "setting": "AR42J tumor [3]; minimum", "result": 0.0580, "unit": "min⁻¹"}, {"measurement": "k4 (externalization)", "setting": "AR42J tumor [3]; minimum", "result": 0.0493, "unit": "min⁻¹"}, {"measurement": "tracer uptake in other sites", "setting": "[4]", "result": "liver, kidney, urinary bladder, and testicles"}, {"measurement": "uptake compared with ^18F-FDG", "setting": "[5]", "result": "lower than ^18F-FDG"}, {"measurement": "uptake in gastrointestinal stromal tumors", "setting": "[5]; subgroup of patients", "result": "enhanced ^68Ga-BZH3 uptake in a subgroup of patients with gastrointestinal stromal tumors"}, {"measurement": "internalization", "setting": "gliomas", "result": "higher internalization"}, {"measurement": "receptor binding", "setting": "gliomas", "result": "lower receptor binding"}]}]}
